Source: patent US8609655B2, “Calcimimetic compound for use in the treatment of epithelial injury” (Amgen Inc., priority 2008, dated 2013)

Experiments:
isolated ileal villi = experiment: Ischemic injury (100% N2) and intracellular calcium (FLUO-4) in isolated ileal villi; format: cell-based; conditions: 5 min exposure to 100 nM compound A; rat ileal villi; without calcimimetic sustained increase greater than 200% of initial value
Method: Male (Casr^+/+;Gcm2^−/−) or CaSR knockout (Casr^−/−;Gcm2^−/−) mice weighing 22-27 grams (upper panel) or male Sprague-Dawley rats weighing 220-275 grams (lower panel) were allowed free access to water and food prior to experimentation. The animals were exposed to an overdose of isofluorane and the ileum was removed. The ileum was then cut into 4 cm long sections and each section was placed in EDTA (20 mM) to isolate individual villi for 20 minutes at 37° C. After this digestion period the villi were placed in a HEPES-Ringer Solution that was bubbled with 100% O2 and were kept in this solution at 4° C. until use. All mice were generated at Yale University from a breeding colony. Male Sprague-Dawley rats were purchased from Charles River Laboratories Inc. (Wilmington, Mass.). […]
Following isolation individual villi were placed on coverslips and loaded with the calcium indicator dye FLUO4-AM (10 μM) (Invitrogen, Oregon USA) for 15 minutes. […] Images were recorded for 20-30 minutes using DIC optics at 60× Magnification with a Cooled CCD camera and Metamorph Image acquisition and analysis software.
The increase in intracellular Ca^2+ is plotted as arbitrary fluorescent units (AFU) with higher numbers of AFU representing an increase in intracellular Ca^2+. The data for each villi with a minimum of 7 cells per villi were then pooled and recorded. […]

colonic crypts = experiment: Ischemic injury (100% N2) and intracellular calcium in colonic crypts; format: cell-based; conditions: 5 min prepulse with 100 nM compound A; rat colonic crypts
ileal villi = experiment: Ischemic injury and Trypan Blue exclusion in ileal villi; format: cell-based, rat; conditions: 5 min of 100 nM compound A; 30 min 100% N2; without calcimimetic greater than 60% uptake
Method: Individual villi were transferred to the stage of an inverted microscope where they were perfused with 37° C. HEPES Ringer solution that was bubbled with 100% O2. After the 5 minute equilibration period villi were exposed to a HEPES Ringer solution that had been bubbled with 100% N2. In one series Trypan Blue a non membrane permeant dye used for assessment of membrane integrity was added to the bath (0.1 mM Trypan Blue concentration dissolved directly into the bath solution, either 100% O2 or 100% N2). Images were then recorded at sequential time points using DIC optics at 60× Magnification using a Cooled CCD camera and Metafluor Image acquisition and analysis software. Final data was acquired at 30 min from start of perfusion for all groups. The number of Trypan blue positive cells were counted and a number recorded for each villi under each condition. After 30 minutes of exposure to each experimental solution the number of Trypan Blue positive cells was recorded from a blinded observer. The final number of positive cells for each villi was recorded. The data for each villi with a minimum of 7 cells per villi were then pooled and recorded. A numeric mean was then given for the summation of all the cellular data from each villi and from each animal. For the studies presented there were 7 cells per villi, 5 villi per animal and 5 animals in each group. […]

[1] = system: wound injury RNA biomarkers (wound tissue); experiment: Wound injury RNA biomarkers by quantitative PCR in full-thickness cutaneous wound injury model; format: in vivo, mouse; conditions: 3 mg/kg, drug over vehicle, n=5
Method: See Zoog S J et al. Cytometry A. (2009) March; 75(3): 189-98. The impact of calcimimetic treatment on gene mRNA biomarkers was assessed by quantitative PCR. For wound injury RNA biomarker exploration, female balb/c mice were randomly divided and treated with Compound B (3 mg/kg, n=5) or vehicle (20% Captisol in water, n=5) the day before cutaneous wounding and each subsequent day after until the termination of the studies. All mice received a 3 mm diameter full-thickness punch wound on day zero. On day 1 and day 3 post-injury, a 6 mm diameter skin biopsy was made over the original 3 mm wound and the wound tissue collected for RNA analysis. RNA was isolated using the Trizol reagent (Invitrogen) following manufacturer's instruction. 10 ng of total RNA was added to a single well at the final volume of 10 ul in 1×ABI (Applied Biosystems) Taqman qRT-PCR mixture and run on an ABI 7900 HT Real Time PCR system. For data analysis, the gene expression profile of each sample was first determined based on a control gene, Hprt1, using ABI SDS2.1 software. The signal of each sample was normalized further with Actb, Gapdh, Hprt1, and Rpl27. The biomarkers of wound injury, inflammation and repair that were dynamically affected by Compound B on day 1 and day 3 compared to vehicle control are shown in Table 2. Calcimimetic Compound B affected inflammatory genes, and genes involved in remodeling and repair. Specifically, key inflammatory cytokines such as IL-1a and TNF that may promote cell death were affected by Compound B. Genes involved in inflammation and repair that were affected included: tryptase, TIMP-3, and MMP13. Genes involved in promoting cell survival included: VEGFa, TGFb1, eNOS, and PDGFRb. Immune cell related genes included: M-CSF, TLR-7 and CD3. Other relevant genes included: ITGA3 and PRG-1. […] Table 2 represents the fold increase of drug-induced quantitative change in the gene over vehicle as determined by PCR analysis (n=5 in each drug or vehicle treated cohort).

[2] = Plasma level of calcimimetic in cutaneous wound study; format: in vivo, mouse; conditions: Compound B 3 mg/kg daily, female balb/c mice, over the course of the study
serum total calcium = experiment: Serum total calcium in cutaneous wound study; format: in vivo, mouse; conditions: Compound B 3 mg/kg daily, female balb/c mice; vehicle 10.2-10.9 mg/dL

COc1cccc([C@@H](C)NCCCc2ccccc2Cl)c1 [Compound A, 3-(2-chlorophenyl)-N-((1R)-1-(3-(methyloxy)phenyl)ethyl)-1-propanamine]
change in intracellular calcium following exposure to 100% N2 (isolated ileal villi): no increase in calcium | change in intracellular calcium following exposure to 100% N2 (colonic crypts): no increase in calcium | cellular uptake of Trypan Blue (ileal villi): prevented uptake of Trypan Blue

COc1ccc(CNC(C)c2ccccc2)cc1-c1ccc(C(F)(F)F)cc1 (centres unmarked) [Compound B, N-((6-(methyloxy)-4′-(trifluoromethyl)-1,1′-biphenyl-3-yl)methyl)-1-phenylethanamine]
Fold Increase (C/V) CD3 RNA ([1]; Day 1 post-injury): 2.90 fold | Fold Increase (C/V) IL-1a RNA ([1]; Day 1 post-injury): 1.78 fold | Fold Increase (C/V) ITGA3 RNA ([1]; Day 1 post-injury): 4.89 fold | Fold Increase (C/V) M-CSF RNA ([1]; Day 1 post-injury): 2.13 fold | Fold Increase (C/V) MMP13 RNA ([1]; Day 1 post-injury): 2.78 fold | Fold Increase (C/V) PDGFRb(CD140) RNA ([1]; Day 1 post-injury): 0.67 fold | Fold Increase (C/V) PRG-1 RNA ([1]; Day 1 post-injury): 3.03 fold | Fold Increase (C/V) TGFB1 RNA ([1]; Day 1 post-injury): 4.17 fold | Fold Increase (C/V) TIMP-3 RNA ([1]; Day 1 post-injury): 4.48 fold | Fold Increase (C/V) TLR-7 RNA ([1]; Day 1 post-injury): 2.20 fold | Fold Increase (C/V) TNFR(p75) RNA ([1]; Day 1 post-injury): 1.62 fold | Fold Increase (C/V) TNFalpha RNA ([1]; Day 1 post-injury): 1.26 fold | Fold Increase (C/V) Tryptase b2 (MCP-6) RNA ([1]; Day 1 post-injury): 1.02 fold | Fold Increase (C/V) VEGFa RNA ([1]; Day 1 post-injury): 1.53 fold | Fold Increase (C/V) eNOS RNA ([1]; Day 1 post-injury): 5.41 fold | Fold Increase (C/V) CD3 RNA ([1]; Day 3 post-injury): 0.88 fold | Fold Increase (C/V) IL-1a RNA ([1]; Day 3 post-injury): 3.44 fold | Fold Increase (C/V) ITGA3 RNA ([1]; Day 3 post-injury): 1.78 fold | Fold Increase (C/V) M-CSF RNA ([1]; Day 3 post-injury): 2.13 fold | Fold Increase (C/V) MMP13 RNA ([1]; Day 3 post-injury): 1.90 fold | Fold Increase (C/V) PDGFRb(CD140) RNA ([1]; Day 3 post-injury): 1.42 fold | Fold Increase (C/V) PRG-1 RNA ([1]; Day 3 post-injury): 4.12 fold | Fold Increase (C/V) TGFB1 RNA ([1]; Day 3 post-injury): 0.92 fold | Fold Increase (C/V) TIMP-3 RNA ([1]; Day 3 post-injury): 1.62 fold | Fold Increase (C/V) TLR-7 RNA ([1]; Day 3 post-injury): 2.39 fold | Fold Increase (C/V) TNFR(p75) RNA ([1]; Day 3 post-injury): 1.62 fold | Fold Increase (C/V) TNFalpha RNA ([1]; Day 3 post-injury): 3.83 fold | Fold Increase (C/V) Tryptase b2 (MCP-6) RNA ([1]; Day 3 post-injury): 0.95 fold | Fold Increase (C/V) VEGFa RNA ([1]; Day 3 post-injury): 0.61 fold | Fold Increase (C/V) eNOS RNA ([1]; Day 3 post-injury): 0.46 fold | average plasma level [2]: 20 to 36 ng/mL | serum total calcium level (serum total calcium): 7.21 to 7.9 mg/dL
